Assay results published in patent US20260297042A1, “BIARYLAMIDE DERIVATIVES AND THEIR USE AS PKMYT1 INHIBITORS” (CANCER RESEARCH TECHNOLOGY LIMITED, priority 2023, published 2026).

Columns and labels:
[1] = biological target: T1, Cellular PKMYT1 Biomarker CDK1 pT14 (Homo sapiens, UniProt Q99640); experiment: Inhibition of cellular PKMYT1 biomarker CDK1 pT14 in OVCAR 3 cells (immunoblot); assay type: cell-based; conditions: 20 hours incubation
T1 construct: read-out CDK1 phospho-T14 immunoblot
T1 sequence (Q99640 1-499): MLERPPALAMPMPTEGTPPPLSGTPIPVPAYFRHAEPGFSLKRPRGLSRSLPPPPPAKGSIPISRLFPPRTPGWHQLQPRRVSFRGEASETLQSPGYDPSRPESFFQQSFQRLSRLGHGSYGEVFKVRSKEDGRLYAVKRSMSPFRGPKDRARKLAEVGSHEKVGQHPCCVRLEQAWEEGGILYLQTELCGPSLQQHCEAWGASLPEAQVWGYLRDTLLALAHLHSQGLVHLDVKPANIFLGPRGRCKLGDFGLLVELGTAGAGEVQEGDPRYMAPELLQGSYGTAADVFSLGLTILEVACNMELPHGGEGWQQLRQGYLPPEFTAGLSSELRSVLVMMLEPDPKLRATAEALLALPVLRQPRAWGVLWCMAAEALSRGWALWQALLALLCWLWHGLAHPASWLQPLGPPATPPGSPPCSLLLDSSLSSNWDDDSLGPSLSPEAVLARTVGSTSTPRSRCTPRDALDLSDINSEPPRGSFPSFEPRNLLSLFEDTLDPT
How it was run: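 Confluent OVCAR 3 cells treated with a compound concentration range for 20 h at 37 °C. Lysates analysed by automated capillary immunoblot for CDK1 phospho-T14, with vinculin, fluorescence detection; IC50 by regression.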

[2] = tested on: OVCAR 3 cells; experiment: Cancer cell line proliferation assay, ATP-based cell viability (Cell Titre Glow), OVCAR 3 (CCNE1-amplified); conditions: KYSE30 (normal CCNE1) GI50 vs. OVCAR 3 (CCNE1-amplified) GI50
How it was run: (§1)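 Cells were treated with PKMYT1 inhibitors, then proliferation was assessed with CellTiter-Glo and luminescence read. GI50 values were fitted from the resulting data.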

[3] = biological target: T2, WEE1 (Homo sapiens, UniProt P30291); experiment: Selectivity versus WEE1 assay (ADP-Glo enzymatic assay); assay type: biochemical; conditions: for IC50: ADP-Glo; for PKMYT1 vs. WEE1 selectivity: fold difference in selectivity for PKMYT1 over WEE1
T2 construct: purchased Thermo Fisher PR7373A
How it was run: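 Inhibition is measured as reduced ADP production, detected by luminescence with ADP-Glo, after enzyme (15 nM) and 30 µM ATP react for 60 min at 26° C in 1% DMSO-containing HEPES buffer, pH 7.5. Data are accepted only if replicate IC50s fall within 3-fold and r2 exceeds 0.9.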

[4] = tested on: KYSE-30 cells; experiment: Cancer cell line proliferation assay, ATP-based cell viability (Cell Titre Glow), KYSE-30 (normal CCNE1); conditions: Homo sapiens, KYSE-30 cells (normal CCNE1), concentration that achieves 50% cell growth proliferation inhibition, read-out: KYSE30 Gl50
How it was run: as §1

[5] = biological target: T3, Human PKMYT1 (Homo sapiens, UniProt Q99640); experiment: PKMYT1 biochemical ADP-Glo enzymatic assay; conditions: ADP-Glo
T3 construct: Human PKMYT1 75-362 was cloned as a TEV cleavable 6xHis fusion; 6xHis (TEV cleavable) (cleaved yes); made in house; host or cells: bacterial cells
T3 sequence (Q99640 75-362): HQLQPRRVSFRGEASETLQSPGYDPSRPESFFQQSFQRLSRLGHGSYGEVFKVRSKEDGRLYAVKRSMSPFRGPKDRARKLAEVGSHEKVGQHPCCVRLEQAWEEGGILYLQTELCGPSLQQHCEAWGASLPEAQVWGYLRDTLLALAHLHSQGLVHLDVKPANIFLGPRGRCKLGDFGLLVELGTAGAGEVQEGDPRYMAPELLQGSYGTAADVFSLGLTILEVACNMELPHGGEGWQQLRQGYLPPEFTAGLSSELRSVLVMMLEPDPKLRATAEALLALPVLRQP
How it was run: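 IC50 derived from luminescence (ADP-Glo Max) after PKMYT1 kinase domain, 15 nM, turned over 500 µM ATP for 60 min at 26 °C. Buffer contained 10 mM MgCl2, 1 mM EGTA and 0.01% Brij-35 at pH 7.5.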

[6] = 15 nM WEE1, 60 minutes at 26° C., banded
[7] = banded, ">N" = at least in this band but could be higher
[8] = 15 nM PKMYT1 kinase domain, 500 µM ATP, 60 minutes at 26° C., banded
[9] = PKMYT1 kinase domain 15 nM, banded values

T2 sequence (P30291 whole entry): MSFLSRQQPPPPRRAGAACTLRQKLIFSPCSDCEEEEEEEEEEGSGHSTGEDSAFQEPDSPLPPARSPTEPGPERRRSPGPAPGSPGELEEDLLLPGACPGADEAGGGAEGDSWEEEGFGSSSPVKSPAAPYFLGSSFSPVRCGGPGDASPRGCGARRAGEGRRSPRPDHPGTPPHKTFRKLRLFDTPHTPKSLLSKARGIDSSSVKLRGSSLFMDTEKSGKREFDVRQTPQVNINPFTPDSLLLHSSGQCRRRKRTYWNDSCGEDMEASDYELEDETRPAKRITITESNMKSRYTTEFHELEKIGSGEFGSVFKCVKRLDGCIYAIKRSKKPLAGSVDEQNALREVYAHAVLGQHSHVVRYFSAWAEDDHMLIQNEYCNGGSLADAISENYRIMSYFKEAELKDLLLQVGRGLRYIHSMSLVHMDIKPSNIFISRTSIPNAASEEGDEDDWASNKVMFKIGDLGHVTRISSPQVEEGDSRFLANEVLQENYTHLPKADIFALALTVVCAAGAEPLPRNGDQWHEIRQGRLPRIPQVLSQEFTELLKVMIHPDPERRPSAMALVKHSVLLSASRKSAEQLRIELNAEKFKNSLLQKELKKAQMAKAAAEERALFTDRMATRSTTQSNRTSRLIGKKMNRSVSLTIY

Cc1cn(CC(F)(F)F)nc1Nc1ncc(C(=O)Nc2c(C)ccc(O)c2C)s1 [BAA-271, N-(3-hydroxy-2,6-dimethylphenyl)-2-((4-methyl-1-(2,2,2-trifluoroethyl)-1H-pyrazol-3-yl)amino) thiazole-5-carboxamide]
IC50 [1]: < 100 nM
Selectivity ratio KYSE30 Gl50 vs. OVCAR3 Gl50 [2]: Y (>20 fold)
IC50 [3, 6]: > 11000 nM
PKMYT1 vs. WEE1 selectivity [3, 7]: X (100-<1000 fold)
GI50 [4]: > 5000 nM
IC50 [5, 8]: < 50 nM

CCn1nc(Nc2ncc(C(=O)Nc3c(C)ccc(O)c3C)s2)c2cc(C(F)(F)F)ccc21 [BAA-456, 2-((1-ethyl-5-(trifluoromethyl)-1H-indazol-3-yl)amino)-N-(3-hydroxy-2,6-dimethylphenyl)thiazole-5-carboxamide]
IC50 [1]: < 100 nM
Selectivity ratio KYSE30 Gl50 vs. OVCAR3 Gl50 [2]: X (3-20 fold)
IC50 ([3]; WEE1 15 nM, banded values): > 11000 nM
PKMYT1 vs. WEE1 selectivity ([3]; banded): Y (1000-5000 fold)
GI50 [4]: 500 to 5000 nM
IC50 [5, 9]: 50 to 1000 nM

Cc1ccc(NC(=O)C2CCOCC2)nc1Nc1ncc(C(=O)Nc2c(C)ccc(O)c2C)s1.Cl [BAA-331, N-(3-hydroxy-2,6-dimethylphenyl)-2-((3-methyl-6-(tetrahydro-2H-pyran-4-carboxamido)pyridin-2-yl)amino)thiazole-5-carboxamide hydrochloride]
IC50 [1]: < 100 nM
Selectivity ratio KYSE30 Gl50 vs. OVCAR3 Gl50 [2]: Y (>20 fold)
IC50 [3, 6]: > 11000 nM
PKMYT1 vs. WEE1 selectivity [3, 7]: Y (1000-5000 fold)
GI50 [4]: 500 to 5000 nM
IC50 [5, 8]: < 50 nM

CCN(C(=O)Cc1cccc(Nc2ncc(C(=O)Nc3c(C)ccc(O)c3C)s2)n1)C1CC1 [BAA-426, 2-((6-(2-(Cyclopropyl(ethyl)amino)-2-oxoethyl)pyridin-2-yl)amino)-N-(3-hydroxy-2,6-dimethylphenyl)thiazole-5-carboxamide]
IC50 [1]: < 100 nM
Selectivity ratio KYSE30 Gl50 vs. OVCAR3 Gl50 [2]: Y (>20 fold)
IC50 ([3]; WEE1 15 nM, banded values): > 11000 nM
PKMYT1 vs. WEE1 selectivity ([3]; banded): Z (>5000 fold)
GI50 [4]: 500 to 5000 nM
IC50 [5, 9]: < 50 nM

Cc1ccc(NC(=O)C(C)(C)C)nc1Nc1ncc(C(=O)Nc2c(C)ccc(O)c2C)s1 [BAA-323, N-(3-hydroxy-2,6-dimethylphenyl)-2-((3-methyl-6-pivalamidopyridin-2-yl)amino)thiazole-5-carboxamide]
IC50 [1]: < 100 nM
Selectivity ratio KYSE30 Gl50 vs. OVCAR3 Gl50 [2]: Y (>20 fold)
IC50 [3, 6]: > 11000 nM
PKMYT1 vs. WEE1 selectivity [3, 7]: Y (1000-5000 fold)
GI50 [4]: 500 to 5000 nM
IC50 [5, 8]: < 50 nM

Cc1cn(C(CO)C(=O)N(C)C2CC2)nc1Nc1ncc(C(=O)Nc2c(C)ccc(O)c2C)s1 (stereo not drawn) [BAA-591, 2-((1-(1-(cyclopropyl(methyl)amino)-3-hydroxy-1-oxopropan-2-yl)-4-methyl-1H-pyrazol-3-yl)amino)-N-(3-hydroxy-2,6-dimethylphenyl)thiazole-5-carboxamide]
IC50 [1]: < 100 nM
Selectivity ratio KYSE30 Gl50 vs. OVCAR3 Gl50 [2]: Y (>20 fold)
IC50 ([3]; WEE1 15 nM, banded values): 1000 to 11000 nM
PKMYT1 vs. WEE1 selectivity ([3]; banded): X (100-<1000 fold)
GI50 [4]: > 5000 nM
IC50 [5, 9]: < 50 nM

Cc1ccc(O)c(C)c1NC(=O)c1cnc(Nc2cccc(N3CCN(CCO)CC3)n2)s1 [BAA-432, N-(3-hydroxy-2,6-dimethylphenyl)-2-((6-(4-(2-hydroxyethyl)piperazin-1-yl)pyridin-2-yl)amino)thiazole-5-carboxamide]
IC50 [1]: < 100 nM
Selectivity ratio KYSE30 Gl50 vs. OVCAR3 Gl50 [2]: Y (>20 fold)
IC50 ([3]; WEE1 15 nM, banded values): 1000 to 11000 nM
PKMYT1 vs. WEE1 selectivity ([3]; banded): X (100-<1000 fold)
GI50 [4]: > 5000 nM
IC50 [5, 9]: < 50 nM

Cc1ccc(O)c(C)c1NC(=O)c1cnc(Nc2ncnc3[nH]ccc23)s1 [BAA-441, 2-((7H-pyrrolo[2,3-d]pyrimidin-4-yl)amino)-N-(3-hydroxy-2,6-dimethylphenyl)thiazole-5-carboxamide]
IC50 [1]: < 100 nM
Selectivity ratio KYSE30 Gl50 vs. OVCAR3 Gl50 [2]: Y (>20 fold)
IC50 ([3]; WEE1 15 nM, banded values): 1000 to 11000 nM
PKMYT1 vs. WEE1 selectivity ([3]; banded): W (10-<100 fold)
GI50 [4]: > 5000 nM
IC50 [5, 9]: < 50 nM

CCc1cn(CCF)nc1Nc1ncc(C(=O)Nc2c(C)ccc(O)c2C)s1 [BAA-588, 2-((4-ethyl-1-(2-fluoroethyl)-1H-pyrazol-3-yl)amino)-N-(3-hydroxy-2,6-dimethylphenyl)thiazole-5-carboxamide]
IC50 [1]: < 100 nM
Selectivity ratio KYSE30 Gl50 vs. OVCAR3 Gl50 [2]: Y (>20 fold)
IC50 ([3]; WEE1 15 nM, banded values): 1000 to 11000 nM
PKMYT1 vs. WEE1 selectivity ([3]; banded): X (100-<1000 fold)
GI50 [4]: 500 to 5000 nM
IC50 [5, 9]: < 50 nM

Cc1cn(C(C)C(=O)N2CCCC2)nc1Nc1ncc(C(=O)Nc2c(C)ccc(O)c2C)s1 (stereo not drawn) [BAA-488, N-(3-hydroxy-2,6-dimethylphenyl)-2-((4-methyl-1-(1-oxo-1-(pyrrolidin-1-yl)propan-2-yl)-1H-pyrazol-3-yl)amino)thiazole-5-carboxamide]
IC50 [1]: < 100 nM
Selectivity ratio KYSE30 Gl50 vs. OVCAR3 Gl50 [2]: Y (>20 fold)
IC50 ([3]; WEE1 15 nM, banded values): 1000 to 11000 nM
PKMYT1 vs. WEE1 selectivity ([3]; banded): X (100-<1000 fold)
GI50 [4]: > 5000 nM
IC50 [5, 9]: < 50 nM

Cc1cn(CC(=O)N2CC3(CCC3)C2)nc1Nc1ncc(C(=O)Nc2c(C)ccc(O)c2C)s1 [BAA-381, N-(3-hydroxy-2,6-dimethylphenyl)-2-((4-methyl-1-(2-oxo-2-(2-azaspiro[3.3]heptan-2-yl)ethyl)-1H-pyrazol-3-yl)amino)thiazole-5-carboxamide]
IC50 [1]: < 100 nM
Selectivity ratio KYSE30 Gl50 vs. OVCAR3 Gl50 [2]: Y (>20 fold)
IC50 [3, 6]: 1000 to 11000 nM
PKMYT1 vs. WEE1 selectivity [3, 7]: X (100-<1000 fold)
GI50 [4]: > 5000 nM
IC50 [5, 8]: < 50 nM

Cc1ccc(O)c(C)c1NC(=O)c1cnc(Nc2ccccn2)s1 [BAA-421, N-(3-hydroxy-2,6-dimethylphenyl)-2-(pyridin-2-ylamino)thiazole-5-carboxamide]
IC50 [1]: < 100 nM
Selectivity ratio KYSE30 Gl50 vs. OVCAR3 Gl50 [2]: Y (>20 fold)
IC50 ([3]; WEE1 15 nM, banded values): > 11000 nM
PKMYT1 vs. WEE1 selectivity ([3]; banded): X (100-<1000 fold)
GI50 [4]: 500 to 5000 nM
IC50 [5, 9]: < 50 nM

Cc1ccc(O)c(C)c1NC(=O)c1cnc(Nc2cc(N3CCN(C)CC3)ncn2)s1 [BAA-581, N-(3-hydroxy-2,6-dimethylphenyl)-2-((6-(4-methylpiperazin-1-yl)pyrimidin-4-yl)amino)thiazole-5-carboxamide]
IC50 [1]: < 100 nM
Selectivity ratio KYSE30 Gl50 vs. OVCAR3 Gl50 [2]: Y (>20 fold)
IC50 ([3]; WEE1 15 nM, banded values): 50 to 1000 nM
PKMYT1 vs. WEE1 selectivity ([3]; banded): W (10-<100 fold)
GI50 [4]: > 5000 nM
IC50 [5, 9]: < 50 nM

Cc1cn(C(CO)C(=O)N2CCCC2C(F)(F)F)nc1Nc1ncc(C(=O)Nc2c(C)ccc(O)c2C)s1 (stereo not drawn) [BAA-578, 2-((1-(3-hydroxy-1-oxo-1-(2-(trifluoromethyl)pyrrolidin-1-yl)propan-2-yl)-4-methyl-1H-pyrazol-3-yl)amino)-N-(3-hydroxy-2,6-dimethylphenyl)thiazole-5-carboxamide]
IC50 [1]: < 100 nM
Selectivity ratio KYSE30 Gl50 vs. OVCAR3 Gl50 [2]: Y (>20 fold)
IC50 ([3]; WEE1 15 nM, banded values): 1000 to 11000 nM
PKMYT1 vs. WEE1 selectivity ([3]; banded): X (100-<1000 fold)
GI50 [4]: > 5000 nM
IC50 [5, 9]: < 50 nM

Cc1ccnc(Nc2ncc(C(=O)Nc3c(C)ccc(O)c3C)s2)c1 [BAA-422, N-(3-hydroxy-2,6-dimethylphenyl)-2-((4-methylpyridin-2-yl)amino)thiazole-5-carboxamide]
IC50 [1]: < 100 nM
Selectivity ratio KYSE30 Gl50 vs. OVCAR3 Gl50 [2]: Y (>20 fold)
IC50 ([3]; WEE1 15 nM, banded values): 1000 to 11000 nM
PKMYT1 vs. WEE1 selectivity ([3]; banded): X (100-<1000 fold)
GI50 [4]: 500 to 5000 nM
IC50 [5, 9]: < 50 nM
